Assay results from patent publication US7935699B2, “Pyrazole glucokinase activators” (Hoffmann-La Roche Inc., priority 2006, dated 2011).

biological target: T1, Recombinant human liver GK1 (GST-GK) (Homo sapiens, UniProt P35557); assay: Glucokinase in vitro assay (G6PDH-coupled, NADH at OD340); type: biochemical; conditions: 25° C., 5 mM D-glucose, 10% DMSO, GST-GK
T1 construct: made in house; host or cells: E. coli
T1 sequence (P35557 1-466 isoform P35557-2): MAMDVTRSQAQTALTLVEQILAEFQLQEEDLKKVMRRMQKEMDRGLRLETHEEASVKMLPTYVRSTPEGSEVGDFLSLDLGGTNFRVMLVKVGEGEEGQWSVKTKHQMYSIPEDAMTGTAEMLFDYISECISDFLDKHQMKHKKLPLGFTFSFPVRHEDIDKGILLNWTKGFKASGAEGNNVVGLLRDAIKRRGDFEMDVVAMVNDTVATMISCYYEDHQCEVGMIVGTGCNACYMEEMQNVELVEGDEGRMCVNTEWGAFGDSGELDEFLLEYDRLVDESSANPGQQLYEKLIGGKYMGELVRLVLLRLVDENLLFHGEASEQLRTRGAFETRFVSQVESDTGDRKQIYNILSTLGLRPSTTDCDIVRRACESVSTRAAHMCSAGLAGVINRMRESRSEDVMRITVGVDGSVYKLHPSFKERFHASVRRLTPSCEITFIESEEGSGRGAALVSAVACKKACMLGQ
Experimental: Glucokinase In Vitro Assay Protocol: Glucokinase (GK) was assayed by coupling the production of glucose-6-phosphate to the generation of NADH with glucose-6-phosphate dehydrogenase (G6PDH, 0.75-1 kunits/mg; Boehringer Mannheim, Indianapolis, Ind.) from Leuconostoc mesenteroides as the coupling enzyme (Scheme 2).
Recombinant human liver GK1 was expressed in E. coli as a glutathione S-transferase fusion protein (GST-GK) [Liang et al, 1995] and was purified by chromatography over a glutathione-Sepharose 4B affinity column using the procedure provided by the manufacturer (Amersham Pharmacia Biotech, Piscataway, N.J.).
The assay was conducted at 25° C. in a flat bottom 96-well tissue culture plate from Costar (Cambridge, Mass.) with a final incubation volume of 120 μL. The incubation reaction contained the following: 25 mM Hepes buffer (pH 7.1), 25 mM KCl, 5 mM D-glucose, 1 mM ATP, 1.8 mM NAD, 2 mM MgCl2, 1 μM sorbitol-6-phosphate, 1 mM dithiothreitol, test drug or 10% DMSO, 1.8 unit/ml G6PDH, and GK (see below). All organic reagents were >98% pure and were from Boehringer Mannheim with the exceptions of D-glucose and Hepes which were from Sigma Chemical Co, St Louis, Mo. Test compounds were dissolved in DMSO and were added to the incubation reaction minus GST-GK in a volume of 12 μL to yield a final DMSO concentration of 10%. This mix was pre-incubated in the temperature controlled chamber of a SPECTRAmax 250 microplate spectrophotometer (Molecular Devices Corporation, Sunnyvale, Calif.) for 10 minutes to allow temperature equilibrium and then the reaction was started by the addition of 20 μL GST-GK.
After addition of enzyme, the increase in optical density (OD) at 340 nm was monitored over a 10 minute incubation period as a measure of GK activity. Sufficient GST-GK was added to produce an increase in OD340 of 0.08 to 0.1 units over the 10 minute incubation period in wells containing 10% DMSO but no test compound. Preliminary experiments established that the GK reaction was linear over this period of time even in the presence of activators that produced a 5-fold increase in GK activity. The GK activity in control wells was compared with the activity in wells containing test GK activators, and the concentration of activator that produced a 50% increase in the activity of GK, i.e., the SC1.5, was calculated.

| SMILES | SC1.5 (concentration of activator that produced a 50% increase in the activity of GK) [µM] |
| --- | --- |
| CS(=O)(=O)c1ccc([C@@H](CC2CCOCC2)C(=O)Nc2ccn(CCO)n2)cc1Cl (single isomer, unassigned) [Example 76] | 5.3 |
| CS(=O)(=O)c1ccc([C@@H](CC2CCCC2)C(=O)Nc2cc[nH]n2)cc1Cl [Example 2, 2(R)-(3-Chloro-4-methanesulfonyl-phenyl)-3-cyclopentyl-N-(1H-pyrazol-3-yl)-propionamide] | 0.28 |
| CC(C)(C)OC(=O)CCn1ccc(NC(=O)[C@H](CC2CCCC2)c2ccc(S(C)(=O)=O)c(Cl)c2)n1 [Example 8, 3-{3-[2(R)-(3-Chloro-4-methanesulfonyl-phenyl)-3-cyclopentyl-propionylamino]-pyrazol-1-yl}-propionic acid tert-butyl ester] | 0.2 |
| CCCNC(=O)CCn1ccc(NC(=O)[C@H](CC2CCCC2)c2ccc(S(C)(=O)=O)c(Cl)c2)n1 [Example 11, 2(R)-(3-Chloro-4-methanesulfonyl-phenyl)-3-cyclopentyl-N-[1-(2-propylcarbamoyl-ethyl)-1H-pyrazol-3-yl]-propionamide] | 0.45 |
| CS(=O)(=O)c1ccc([C@@H](CC2CCCC2)C(=O)Nc2ccn(Cc3ccccc3)n2)cc1Cl [Example 24, N-(1-Benzyl-1H-pyrazol-3-yl)-2(R)-(3-chloro-4-methanesulfonyl-phenyl)-3-cyclopentyl-propionamide] | 0.083 |
| COC(=O)c1ccc(Cn2ccc(NC(=O)[C@H](CC3CCCC3)c3ccc(S(C)(=O)=O)c(Cl)c3)n2)cc1 [Example 44, 4-{3-[2-(R)-(3-Chloro-4-methanesulfonyl-phenyl)-3-cyclopentyl-propionylamino]-pyrazol-1-ylmethyl}-benzoic acid methyl ester] | 0.061 |
| COCCCNC(=O)c1ccc(Cn2ccc(NC(=O)[C@H](CC3CCCC3)c3ccc(S(C)(=O)=O)c(Cl)c3)n2)cc1 [Example 47, 4-{3-[2-(R)-(3-Chloro-4-methanesulfonyl-phenyl)-3-cyclopentyl-propionylamino]-pyrazol-1-ylmethyl}-N-(3-methoxy-propyl)-benzamide] | 0.03 |
| CC(C)n1ccc(NC(=O)[C@H](CC2CCCC2)c2ccc(S(C)(=O)=O)c(Cl)c2)n1 [Example 56, 2-(R)(3-Chloro-4-methanesulfonyl-phenyl)-3-cyclopentyl-N-(1-isopropyl-1H-pyrazol-3-yl)-propionamide] | 0.13 |
| O=C(Nc1ccn(CCO)n1)[C@H](CC1CCCC1)c1cccc(C(F)(F)F)c1 [Example 79, 3-Cyclopentyl-N-[1-(2-hydroxy-ethyl)-1H-pyrazol-3-yl]-2(R)-(3-trifluoromethyl-phenyl)-propionamide] | 1.433 |

same assay, conditions: qualitative statement

| SMILES | glucokinase activation (in words) |
| --- | --- |
| CS(=O)(=O)c1ccc([C@@H](CC2CCOCC2)C(=O)Nc2ccn(CCO)n2)cc1Cl (single isomer, unassigned) [Example 76] | active |
| CC(C)(O)Cn1ccc(NC(=O)[C@H](CC2CCOCC2)c2ccc(Cl)c(Cl)c2)n1 (single isomer, unassigned) [Example 88] | active |
| CC(C)(O)Cn1ccc(NC(=O)[C@H](CC2COC2)c2ccc(S(C)(=O)=O)c(Cl)c2)n1 (single isomer, unassigned) [Example 92] | active |
| CC(C)(O)Cn1ccc(NC(=O)[C@H](CC2CCOCC2)c2ccc(S(C)(=O)=O)c(Cl)c2)n1 [Example 90, 2(R)-(3-Chloro-4-methanesulfonyl-phenyl)-N-[1-(2-hydroxy-2-methyl-propyl)-1H-pyrazol-3-yl]-3-(tetrahydro-pyran-4-yl)-propionamide] | active |

test system: Diet-Induced Obese (DIO) C57BL/6J mice; assay: Glucokinase activator in vivo screen, blood glucose in DIO mice; conditions: Mus musculus; 2 hours post 25 mg/kg oral dose in DIO mice, vs control; read-out: % gluc @ 2 H (% glucose lowering vs control)
Experimental: Glucokinase Activator in vivo Screen Protocol in Lean and Diet Induced Obese Mice: Lean or Diet-Induced Obese (DIO) C57BL/6J mice were orally dosed via gavage with Glucokinase (GK) activator (50 mg/kg body weight for lean mice, 25 mg/kg body weight for DIO mice) following a two hour fasting period. Blood glucose determinations were made four times during the six hour post-dose study period.
C57Bl/6J mice were obtained from Jackson Laboratory (Bar Harbor, Me.) and were maintained in a light-dark cycle with lights on from 0600-1800 hr. For studies in lean mice, the mice were received at age six weeks and given ad libitum access to control diet (LabDiet 5001 chow, PMI Nutrition, Brentwood, Mo.), and were at least age 11 weeks at the time of study. For studies in the DIO model, the mice were received at age five weeks and given ad libitum access to Bio-Serv F3282 High Fat Diet (Frenchtown, N.J.), and were at least age 16 weeks at the time of study. The experiments were conducted during the light phase of the light-dark cycle. Mice (n=6) are weighed and fasted for a two hour period prior to oral treatment. GK activators are formulated in Gelucire vehicle (Ethanol:Gelucire44/14:PEG400q.s. 4:66:30 v/w/v. For studies in lean mice, the mice were dosed orally with 5.0 μL per gram of body weight with 5 ml/kg×10.0 mg/ml formulation to equal a 50 mg/kg dose. For studies in DIO mice, the mice were dosed orally with 5.0 μL per gram of body weight with […] formulation to equal a 25 mg/kg dose. Immediately prior to dosing, a pre-dose (time zero) blood glucose reading was acquired by snipping off a small portion of the animal's tail (˜1 mm) and collecting 15 μL blood into a heparinized capillary tube for analysis. Following GK activator administration, additional blood glucose readings were taken at 2, 4 and 6 hours post dose from the same tail wound. Results were interpreted by comparing the mean blood glucose values of six vehicle treated mice with six GK activator treated mice over the six hour study duration.

| SMILES | change in vivo at 25 mg/kg [%] |
| --- | --- |
| CS(=O)(=O)c1ccc([C@@H](CC2CCCC2)C(=O)Nc2ccn(CC(=O)N3CCOCC3)n2)cc1Cl [Example 7, 2(R)-(3-Chloro-4-methanesulfonyl-phenyl)-3-cyclopentyl-N-[1-(2-morpholin-4-yl-2-oxo-ethyl)-1H-pyrazol-3-yl]-propionamide] | -15.3 |
| CCS(=O)(=O)n1ccc(NC(=O)[C@H](CC2CCCC2)c2ccc(S(C)(=O)=O)c(Cl)c2)n1 [Example 33, 2(R)-(3-Chloro-4-methanesulfonyl-phenyl)-3-cyclopentyl-N-(1-ethanesulfonyl-1H-pyrazol-3-yl)-propionamide] | -9.8 |
| CS(=O)(=O)c1ccc([C@@H](CC2CCCC2)C(=O)Nc2ccn(C[C@@H](O)CO)n2)cc1Cl [Example 35, 2-(R)-(3-Chloro-4-methanesulfonyl-phenyl)-3-cyclopentyl-N-[1-((R)-2,3-dihydroxy-propyl)-1H-pyrazol-3-yl]-propionamide] | -33.2 |
| CS(=O)(=O)c1ccc([C@@H](CC2CCCC2)C(=O)Nc2ccn(CC3(O)CC3)n2)cc1Cl [Example 73, 2-(R)-(3-Chloro-4-methanesulfonyl-phenyl)-3-cyclopentyl-N-[1-(1-hydroxy-cyclopropylmethyl)-1H-pyrazol-3-yl]-propionamide] | -48.5 |
| Cc1cc([C@@H](CC2CCCC2)C(=O)Nc2ccn(CCO)n2)ccc1S(C)(=O)=O [Example 78, 3-Cyclopentyl-N-[1-(2-hydroxy-ethyl)-1H-pyrazol-3-yl]-2(R)-(4-methanesulfonyl-3-methyl-phenyl)-propionamide] | -26.7 |
| COCCn1ccc(NC(=O)[C@H](CC2CCCC2)c2ccc(S(C)(=O)=O)c(C)c2)n1 [Example 81, 3-Cyclopentyl-2(R)-(4-methanesulfonyl-3-methyl-phenyl)-N-[1-(2-methoxy-ethyl)-1H-pyrazol-3-yl]-propionamide] | -31.4 |
| Cc1cc([C@@H](CC2CCCC2)C(=O)Nc2ccn(CCCO)n2)ccc1S(C)(=O)=O [Example 82, 3-Cyclopentyl-N-[1-(3-hydroxy-propyl)-1H-pyrazol-3-yl]-2(R)-(4-methanesulfonyl-3-methyl-phenyl)-propionamide] | -38.3 |
